Data on 52 molecules can be found in patent publication US20250122192A1, “5-PYRIMIDINECARBOXAMIDE DERIVATIVES AND METHODS OF USING THE SAME” (Rgenta Therapeutics, Inc., priority 2021, published 2025).

Structures can show the parent of a compound that is named as a salt.

The subject of the first experiment is PMS1. The experiment can be described thus: Mini-gene reporter assay-PMS1. It is filed as cell-based. Particulars: Homo sapiens, HEK293, PMS1 mini-gene firefly luciferase reporter transiently transfected into HEK293 cells; read-out: PMS1 IC50. The method in brief: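 HEK293 cells transiently transfected with a mini-gene construct: skipped exon with flanking introns and exons fused to firefly luciferase in pcDNA3.1, so exon inclusion raises luciferase signal. Compounds tested in duplicate dilutions, luminescence read after incubation, EC50 fitted by Levenberg-Marquardt.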
A general note: In a reporter assay the amount or activity of a reporter protein is the signal.
In general, IC50 refers to the concentration that inhibits the measured activity by half. Turning to `Cc1cn2cc(NC(=O)c3cnc(N4CCNCC4)nc3)cc(F)c2n1` [Compound 21, N-{8-fluoro-2-methylimidazo[1,2-a]pyridin-6-yl}-2-(piperazin-1-yl)pyrimidine-5-carboxamide], the IC50 was 1000 to 3000 nM. In the case of `CCOc1nc(N2CCNC(C)CC2)ncc1C(=O)Nc1cc(F)c2nc(C)cn2c1` (stereo not shown) [Compound 191], the concentration for half-maximal inhibition (IC50) was below 500 nM.

On to `CCOc1nc(N2CCC3(CCNC3)C2)ncc1C(=O)Nc1cn2cc(C)nc2c(C)n1` (stereo not shown) [Compound 80], for which the 50% inhibitory concentration (IC50) is below 500 nM.

On to `CCOc1nc(N2CC[C@@H](CNC)C2)ncc1C(=O)Nc1cc(F)c2nc(C)cn2c1` [Compound 304, (S)-4-ethoxy-N-(8-fluoro-2-methylimidazo[1,2-a]pyridin-6-yl)-2-(3-((methylamino)methyl)pyrrolidin-1-yl)pyrimidine-5-carboxamide 4-methylbenzenesulfonate], for which the IC50 was in the range of 500 to 1000 nM.

As for `CCOc1nc(N2CCCC3CNCCC32)ncc1C(=O)Nc1cc(F)c2nc(C)cn2c1` (stereo not shown) [Compound 132], the IC50 was below 500 nM. For the molecule `CCNC1COC2(C1)CN(c1ncc(C(=O)Nc3cc(F)c4nc(C)cn4c3)c(OCC)n1)C2` (stereo not shown) [Compound 247], the IC50 was below 500 nM. Turning to `CCOc1nc(N2CCN[C@H](C)C2)ncc1C(=O)Nc1cc(F)c2nc(C)cn2c1` [Compound 3, 4-ethoxy-N-{8-fluoro-2-methylimidazo[1,2-a]pyridin-6-yl}-2-[(3R)-3-methylpiperazin-1-yl]pyrimidine-5-carboxamide], the IC50 fell in the range of 500 to 1000 nM. The same measure, in the same setting: then `CCOc1nc(N2CC[C@@H](NC)C2)ncc1C(=O)Nc1ccc2nc(C)cn2n1` [Compound 317], with above 3000 nM; and `CCOc1nc(N2C3CCCC2CNC3)ncc1C(=O)Nc1cc(F)c2nc(C)cn2c1` [Compound 130], with 1000 to 3000 nM; and `CCOc1nc(N2CCC3CCNCC32)ncc1C(=O)Nc1cc(F)c2nc(C)cn2c1` (stereo not shown) [Compound 201], with below 500 nM. Still for that read-out and setting: then `CCOc1nc(N(C)C2CC3CCC(C2)N3)ncc1C(=O)Nc1cc(F)c2nc(C)cn2c1` (stereo not shown) [Compound 190], with below 500 nM; and `CCOc1nc(N2CCNC(CC)C2)ncc1C(=O)Nc1cn2cc(C)nc2c(C)n1` (stereo not shown) [Compound 63], with 500 to 1000 nM. Same read-out and setting: then `CCOc1nc(N2CCC(C3CCCN3)C2)ncc1C(=O)Nc1cc(F)c2nc(C)cn2c1` (stereo not shown) [Compound 120], with below 500 nM; and `COc1nc(NC2CCNCC2)ncc1C(=O)Nc1cn2cc(C)nc2cn1` [Compound 271, 4-methoxy-N-(2-methylimidazo[1,2-a]pyrazin-6-yl)-2-(piperidin-4-ylamino) pyrimidine-5-carboxamide 2,2,2-trifluoroacetate], with above 3000 nM; and `CCOc1nc(N2CCC3(CCCNC3)C2)ncc1C(=O)Nc1cc(F)c2nc(C)cn2c1` (stereo not shown) [Compound 208], with below 500 nM. In the case of `CCOc1nc(NC2CCNCC2)ncc1C(=O)Nc1cn2cc(C)nc2cn1` [Compound 268, 4-ethoxy-N-(2-methylimidazo[1,2-a]pyrazin-6-yl)-2-(piperidin-4-ylamino) pyrimidine-5-carboxamide formate], the IC50 lay within 1000 to 3000 nM.

On to `CCOc1nc(N2CCNC3CC32)ncc1C(=O)Nc1cc(F)c2nc(C)cn2c1` (stereo not shown) [Compound 192], for which the half-inhibitory concentration (IC50) lay in the range of 500 to 1000 nM. Consider `CCOc1nc(N2CC(CO)C3(CNC3)C2)ncc1C(=O)Nc1cc(F)c2nc(C)cn2c1` (stereo not shown) [Compound 165], for which the IC50 was 1000 to 3000 nM. Still for that read-out and setting: then `CCOc1nc(N2CCN(C)CC2)ncc1C(=O)Nc1cc(F)c2nn(C)cc2c1` [Compound 259, 4-ethoxy-N-(7-fluoro-2-methyl-2H-indazol-5-yl)-2-(4-methylpiperazin-1-yl)pyrimidine-5-carboxamide formate], with 1000 to 3000 nM; and `CCOc1nc(N2CCNCC(O)C2)ncc1C(=O)Nc1cc(F)c2nc(C)cn2c1` (stereo not shown) [Compound 171], with 1000 to 3000 nM. Still for that read-out and setting: next, `CCNC1CCCN(c2ncc(C(=O)Nc3cc(F)c4nc(C)cn4c3)c(OCC)n2)C1` (stereo not shown) [Compound 176]: 500 to 1000 nM.

For `CCOc1nc(N2CCNCCC2C)ncc1C(=O)Nc1cc(F)c2nc(C)cn2c1` (stereo not shown) [Compound 205], the IC50 was in the range of 500 to 1000 nM.

In the case of `CCOc1nc(N2CC[C@@H](NC)C2)ncc1C(=O)Nc1ccc2nc(C)cn2c1` [Compound 289, (R)-4-ethoxy-2-(3-(methylamino)pyrrolidin-1-yl)-N-(2-methylimidazo[1,2-a]pyridin-6-yl)pyrimidine-5-carboxamide formate], the IC50 fell in the range of 1000 to 3000 nM. For `CCOc1nc(N2CCNCC3(CC3)C2)ncc1C(=O)Nc1cc(F)c2nc(C)cn2c1` [Compound 116], the IC50 was below 500 nM. In the case of `CCOc1nc(N2CCOC3(CCCNC3)C2)ncc1C(=O)Nc1cc(F)c2nc(C)cn2c1` (stereo not shown) [Compound 145], the IC50 was above 3000 nM. Still for that read-out and setting: next, `CCOc1nc(N(C)C2CCNCC2C)ncc1C(=O)Nc1cc(F)c2nc(C)cn2c1` (stereo not shown) [Compound 160]: below 500 nM; `CCOc1nc(N(C)C2CCCNCC2)ncc1C(=O)Nc1cn2cc(C)nc2c(C)n1` (stereo not shown) [Compound 46]: below 500 nM. Same read-out and setting: then `CCOc1nc(N2CC(NC)C2)ncc1C(=O)Nc1cc(F)c2nc(C)cn2c1` [Compound 242], with below 500 nM; and `CCOc1nc(N2CC34CCCCC3(CNC4)C2)ncc1C(=O)Nc1cc(F)c2nc(C)cn2c1` (stereo not shown) [Compound 166], with 1000 to 3000 nM; and `CCOc1nc(N2CCNCC2)ncc1C(=O)Nc1cc2cn(C)nc2c(F)c1C` [Compound 307, 4-ethoxy-N-(7-fluoro-2,6-dimethyl-2H-indazol-5-yl)-2-(piperazin-1-yl)pyrimidine-5-carboxamide hydrochloride], with 1000 to 3000 nM. Same read-out and setting: next, `CCOc1nc(N2CCC3(CCN3)CC2)ncc1C(=O)Nc1cn2cc(C)nc2c(C)n1` [Compound 64]: below 500 nM.

With `CCOc1nc(N(C)C2CCCNCC2)ncc1C(=O)Nc1cc(F)c2nc(C)cn2c1` (stereo not shown) [Compound 173], the IC50 is below 500 nM. Same read-out and setting: next, `CCOc1nc(N2CCN[C@@H](C)C2)ncc1C(=O)Nc1cc(F)c2nc(C)cn2c1` [Compound 7, 4-ethoxy-N-{8-fluoro-2-methylimidazo[1,2-a]pyridin-6-yl}-2-[(3S)-3-methylpiperazin-1-yl]pyrimidine-5-carboxamide]: 500 to 1000 nM; `CCOc1nc(N2CC[C@H]3CN[C@H]3C2)ncc1C(=O)Nc1cc(F)c2nc(C)cn2c1` (racemic) [Compound 169]: 500 to 1000 nM.

With `CCOc1nc(N2CCC(CNC)C2)ncc1C(=O)Nc1cn2cc(C)nc2c(C)n1` (stereo not shown) [Compound 62], the IC50 is below 500 nM. Turning to `Cn1cc2cc(NC(=O)c3cnc(N4CCNCC4)nc3OCC(F)F)cc(F)c2n1` [Compound 302, 4-(2,2-difluoroethoxy)-N-(7-fluoro-2-methyl-2H-indazol-5-yl)-2-(piperazin-1-yl)pyrimidine-5-carboxamide], the IC50 is above 3000 nM. Same read-out and setting: then `CCOc1nc(N2CC[C@@H](NC)C2)ncc1C(=O)Nc1cc(OC)c2nn(C)cc2c1` [Compound 295, (R)-4-ethoxy-N-(7-methoxy-2-methyl-2H-indazol-5-yl)-2-(3-(methylamino)pyrrolidin-1-yl)pyrimidine-5-carboxamide 4-methylbenzenesulfonate], with 500 to 1000 nM; and `CCN(c1ncc(C(=O)Nc2cn3cc(C)nc3c(C)n2)c(COC)n1)C1CCNCC1` [Compound 36], with below 500 nM. Take `CCOc1nc(N2CCC(NC)C2)ncc1C(=O)Nc1ccc2nc(C)cn2c1` (stereo not shown) [Compound 274, 4-ethoxy-2-(3-(methylamino)pyrrolidin-1-yl)-N-(2-methylimidazo[1,2-a]pyridin-6-yl)pyrimidine-5-carboxamide]: the IC50 is above 3000 nM. Same read-out and setting: next, `CCOc1nc(N2CCC3(CCNCC3)CC2)ncc1C(=O)Nc1cc(F)c2nc(C)cn2c1` [Compound 207]: below 500 nM; `CCOc1nc(N(C)C2CCNC2)ncc1C(=O)Nc1cn2cc(C)nc2c(C)n1` (stereo not shown) [Compound 81]: 1000 to 3000 nM. Take `CCOc1nc(N2CCNC3CCCCC32)ncc1C(=O)Nc1cn2cc(C)nc2c(C)n1` (stereo not shown) [Compound 23]: the IC50 was above 3000 nM.

The experiment is the same for the next values; noted with them: Homo sapiens, HEK293, read-out: PMS1 IC50 (nM).
`CCOc1nc(N(CC)C2CCNCC2)ncc1C(=O)Nc1ccn2nc(C)cc2c1` [Compound 288, 4-ethoxy-2-(ethyl(piperidin-4-yl)amino)-N-(2-methylpyrazolo[1,5-a]pyridin-5-yl)pyrimidine-5-carboxamide formate]: the IC50 lay in the range of 500 to 1000 nM.

The experiment is the same for the next values; noted with them: Homo sapiens; at 5 μM; PMS1 mini-gene firefly luciferase reporter in HEK293 cells; read-out: PMS1% Effect at 5 μM.
With `CCOc1nc(N2CCNCC(F)(F)C2)ncc1C(=O)Nc1cc(F)c2nc(C)cn2c1` [Compound 140], the activation at 5 µM is below 50%. Same read-out and setting: then `CCOc1nc(C2CCNC2)ncc1C(=O)Nc1cc(F)c2nc(C)cn2c1` (stereo not shown) [Compound 316, 4-ethoxy-N-8-fluoro-2-methylimidazo[1,2-a]pyridin-6-yl-2-(pyrrolidin-3-yl)-pyrimidine-5-carboxamide], with 50 to 75%. Same read-out and setting: next, `CCOc1nc(N2CC(C3CCNC3)C2)ncc1C(=O)Nc1cn2cc(C)nc2c(C)n1` (stereo not shown) [Compound 69]: 50 to 75%; `CCOc1nc(N2CCNC3CC32)ncc1C(=O)Nc1cn2cc(C)nc2c(C)n1` (stereo not shown) [Compound 47]: below 50%. As for `CCOc1nc(N2CCO[C@H]3CNC[C@H]32)ncc1C(=O)Nc1cn2cc(C)nc2c(C)n1` (racemic) [Compound 93], the activation at 5 µM is below 50%.

As for `CCOc1nc(N2CC[C@@H](NC)C2)ncc1C(=O)Nc1cc(F)c2nc(C)cn2c1` (single isomer, unassigned) [Compound 311, hydrochloride], the activation at 5 µM was above 75%. Still for that read-out and setting: then `CCOc1nc(N2CCCC3(CNCCO3)C2)ncc1C(=O)Nc1cc(F)c2nc(C)cn2c1` (stereo not shown) [Compound 172], with below 50%; and `CCOc1nc(N2CC[C@@H](NC)C2)ncc1C(=O)Nc1ccn2nc(C)cc2c1` [Compound 313, 4-ethoxy-2-[(3R)-3-(methylamino)pyrrolidin-1-yl]-N-2-methylpyrazolo[1,5-a]-pyridin-5-ylpyrimidine-5-carboxamide], with above 75%; and `CCOc1nc(N2CCCC2C(=O)N2CCNCC2)ncc1C(=O)Nc1cc(F)c2nc(C)cn2c1` (stereo not shown) [Compound 196], with below 50%.
